One assay concerns the target T1, HDAC-1 (Homo sapiens, UniProt Q13547).
T1 construct: gene HDAC1
The assay is described as follows: fluorogenic deacetylase assay with purified HDAC; supported by CETSA in ME-1 cells (Tagg […] to […] °C). The format is biochemical.

Another assay concerns the target T2, HDAC-8 (Homo sapiens, UniProt Q9BY41).
T2 construct: gene HDAC8
T2 sequence (Q9BY41 1-377): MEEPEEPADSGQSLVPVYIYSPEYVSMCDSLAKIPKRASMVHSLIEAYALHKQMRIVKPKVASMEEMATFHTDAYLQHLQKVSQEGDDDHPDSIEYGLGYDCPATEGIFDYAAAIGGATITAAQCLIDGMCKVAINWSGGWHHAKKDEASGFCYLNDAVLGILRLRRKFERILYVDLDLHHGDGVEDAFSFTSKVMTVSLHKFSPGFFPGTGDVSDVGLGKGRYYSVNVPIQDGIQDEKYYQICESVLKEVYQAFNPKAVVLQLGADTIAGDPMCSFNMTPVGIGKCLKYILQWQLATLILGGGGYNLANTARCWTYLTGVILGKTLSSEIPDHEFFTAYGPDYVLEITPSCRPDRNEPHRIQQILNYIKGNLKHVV
The assay is described as above. Type of assay: biochemical.

SMILES strings stand for the structures.

Broadly, the IC50 is the concentration needed to halve the response being measured. Read a high IC50 as a need for much substance.

T1 sequence (Q13547 whole entry): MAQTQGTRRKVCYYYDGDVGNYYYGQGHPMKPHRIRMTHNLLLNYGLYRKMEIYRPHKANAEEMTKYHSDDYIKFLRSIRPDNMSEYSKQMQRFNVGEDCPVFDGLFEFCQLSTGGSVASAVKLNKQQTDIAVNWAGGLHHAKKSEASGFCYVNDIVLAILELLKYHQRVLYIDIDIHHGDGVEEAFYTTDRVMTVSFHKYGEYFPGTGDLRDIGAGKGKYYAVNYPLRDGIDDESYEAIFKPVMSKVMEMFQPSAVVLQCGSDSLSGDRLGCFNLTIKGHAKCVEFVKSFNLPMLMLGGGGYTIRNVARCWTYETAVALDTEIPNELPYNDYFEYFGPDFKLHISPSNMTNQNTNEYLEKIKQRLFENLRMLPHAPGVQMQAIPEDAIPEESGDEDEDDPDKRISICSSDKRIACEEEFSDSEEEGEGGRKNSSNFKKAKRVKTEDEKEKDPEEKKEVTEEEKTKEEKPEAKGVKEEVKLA

For `O=c1cc(-c2ccccc2)oc2cc(O)c(O)c(O)c12` [Baicalein], the IC50 against HDAC-1 amounted to 46.7 µM; at HDAC-8, 3.95 µM.

Values taken from publication PMC7449246, “Natural HDAC‐1/8 inhibitor baicalein exerts therapeutic effect in CBF‐AML” (Clinical and Translational Medicine, 2020).
